# According to ChEMBL document CHEMBL1151822, “Saldedines A and B, dibromo proaporphine alkaloids from a Madagascan tunicate” (J Nat Prod, 2009):
# Test: Toxicity in Artemia salina
# Type: organism-based
# Conditions: in vivo, read-out: LD50 (the source's name)
row,Compound,LC50 [µM]
1,COc1cc2c3c(c1O)C1(C=C(Br)C(=O)C(Br)=C1)C[C@@H]3N(C)CC2 [SALDEDINE A],4.4
2,COc1cc2c3c(c1O)C1(C=C(Br)C(O)C(Br)=C1)C[C@@H]3N(C)CC2 (some centres not stated) [SALDEDINE B],10.9
